The numbers were not newly measured in patent publication US8324220B2 (priority 2003, dated 2012), which cites them from elsewhere.

The test system of series [1] is neuropathic pain. The note with it: human, in vivo.
The target of series [2] is NaV1.3 (Homo sapiens, UniProt Q9NY46). To be noted: read-out: TTX IC50.
For series [3], the target named is NaV1.5 (Homo sapiens, UniProt Q14524).
Series [4] deals with NaV1.6 (Homo sapiens, UniProt Q9UQD0). To be noted: read-out: TTX IC50.
Series [5] concerns the target NaV1.8 (Homo sapiens, UniProt Q9Y5Y9).
The target of series [6] is NaV1.9 (Homo sapiens, UniProt Q9UI33).
Series [7] addresses NaV1.1 (Homo sapiens, UniProt P35498). The note with it: read-out: TTX IC50.
The target in series [8] is NaV1.2 (Homo sapiens, UniProt Q99250). To be noted: read-out: TTX IC50.

Chain of NaV1.8 (Q9Y5Y9 whole entry, looked up): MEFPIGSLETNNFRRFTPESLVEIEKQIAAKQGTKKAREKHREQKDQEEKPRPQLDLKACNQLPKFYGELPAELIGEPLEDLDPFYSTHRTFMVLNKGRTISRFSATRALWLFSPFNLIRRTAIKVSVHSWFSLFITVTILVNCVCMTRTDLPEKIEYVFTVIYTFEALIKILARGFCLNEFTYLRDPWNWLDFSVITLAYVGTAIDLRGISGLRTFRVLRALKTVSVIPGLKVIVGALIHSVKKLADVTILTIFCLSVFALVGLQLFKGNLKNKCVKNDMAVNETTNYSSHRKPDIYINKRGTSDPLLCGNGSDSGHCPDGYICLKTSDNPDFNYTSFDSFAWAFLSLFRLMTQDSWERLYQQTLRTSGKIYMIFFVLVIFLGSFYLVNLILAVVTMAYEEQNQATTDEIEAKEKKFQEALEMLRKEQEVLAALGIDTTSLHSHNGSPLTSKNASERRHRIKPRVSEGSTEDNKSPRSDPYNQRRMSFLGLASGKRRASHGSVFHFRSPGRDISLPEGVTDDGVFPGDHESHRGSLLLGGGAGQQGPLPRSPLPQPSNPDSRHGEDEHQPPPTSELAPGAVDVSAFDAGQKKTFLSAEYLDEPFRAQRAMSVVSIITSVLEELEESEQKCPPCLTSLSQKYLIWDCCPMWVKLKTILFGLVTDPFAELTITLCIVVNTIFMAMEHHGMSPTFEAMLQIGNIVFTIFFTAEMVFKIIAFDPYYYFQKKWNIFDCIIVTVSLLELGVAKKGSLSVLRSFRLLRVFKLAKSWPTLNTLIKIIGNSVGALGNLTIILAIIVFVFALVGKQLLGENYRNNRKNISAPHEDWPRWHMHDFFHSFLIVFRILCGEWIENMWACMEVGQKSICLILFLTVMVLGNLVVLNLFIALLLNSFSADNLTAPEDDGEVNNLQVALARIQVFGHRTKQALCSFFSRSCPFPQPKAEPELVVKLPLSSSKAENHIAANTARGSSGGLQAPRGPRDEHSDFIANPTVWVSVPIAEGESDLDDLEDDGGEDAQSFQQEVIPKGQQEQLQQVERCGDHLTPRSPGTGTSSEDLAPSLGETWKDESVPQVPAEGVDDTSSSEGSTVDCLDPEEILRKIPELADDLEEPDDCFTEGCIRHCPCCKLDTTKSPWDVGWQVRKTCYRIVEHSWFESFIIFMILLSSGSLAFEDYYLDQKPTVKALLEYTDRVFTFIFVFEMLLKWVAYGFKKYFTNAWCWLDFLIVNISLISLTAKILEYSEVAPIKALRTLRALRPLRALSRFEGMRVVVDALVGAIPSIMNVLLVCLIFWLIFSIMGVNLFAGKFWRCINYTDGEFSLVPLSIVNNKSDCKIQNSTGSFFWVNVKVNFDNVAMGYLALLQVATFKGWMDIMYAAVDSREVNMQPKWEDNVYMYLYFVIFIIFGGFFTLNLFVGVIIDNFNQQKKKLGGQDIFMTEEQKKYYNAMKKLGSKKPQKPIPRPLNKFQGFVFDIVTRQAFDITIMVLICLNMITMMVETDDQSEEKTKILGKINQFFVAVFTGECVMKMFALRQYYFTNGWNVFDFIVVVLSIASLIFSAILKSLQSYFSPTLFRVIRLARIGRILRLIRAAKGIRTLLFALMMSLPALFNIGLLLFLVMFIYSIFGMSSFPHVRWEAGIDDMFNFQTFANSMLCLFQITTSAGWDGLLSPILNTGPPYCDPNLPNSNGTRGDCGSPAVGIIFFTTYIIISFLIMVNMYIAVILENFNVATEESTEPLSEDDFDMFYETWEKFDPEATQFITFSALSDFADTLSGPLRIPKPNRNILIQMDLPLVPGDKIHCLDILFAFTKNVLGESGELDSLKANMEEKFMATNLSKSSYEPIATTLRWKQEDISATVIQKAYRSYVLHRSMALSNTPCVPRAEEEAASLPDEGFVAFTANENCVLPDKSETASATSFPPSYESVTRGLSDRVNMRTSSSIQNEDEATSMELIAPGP
Chain of NaV1.9 (Q9UI33 whole entry, looked up): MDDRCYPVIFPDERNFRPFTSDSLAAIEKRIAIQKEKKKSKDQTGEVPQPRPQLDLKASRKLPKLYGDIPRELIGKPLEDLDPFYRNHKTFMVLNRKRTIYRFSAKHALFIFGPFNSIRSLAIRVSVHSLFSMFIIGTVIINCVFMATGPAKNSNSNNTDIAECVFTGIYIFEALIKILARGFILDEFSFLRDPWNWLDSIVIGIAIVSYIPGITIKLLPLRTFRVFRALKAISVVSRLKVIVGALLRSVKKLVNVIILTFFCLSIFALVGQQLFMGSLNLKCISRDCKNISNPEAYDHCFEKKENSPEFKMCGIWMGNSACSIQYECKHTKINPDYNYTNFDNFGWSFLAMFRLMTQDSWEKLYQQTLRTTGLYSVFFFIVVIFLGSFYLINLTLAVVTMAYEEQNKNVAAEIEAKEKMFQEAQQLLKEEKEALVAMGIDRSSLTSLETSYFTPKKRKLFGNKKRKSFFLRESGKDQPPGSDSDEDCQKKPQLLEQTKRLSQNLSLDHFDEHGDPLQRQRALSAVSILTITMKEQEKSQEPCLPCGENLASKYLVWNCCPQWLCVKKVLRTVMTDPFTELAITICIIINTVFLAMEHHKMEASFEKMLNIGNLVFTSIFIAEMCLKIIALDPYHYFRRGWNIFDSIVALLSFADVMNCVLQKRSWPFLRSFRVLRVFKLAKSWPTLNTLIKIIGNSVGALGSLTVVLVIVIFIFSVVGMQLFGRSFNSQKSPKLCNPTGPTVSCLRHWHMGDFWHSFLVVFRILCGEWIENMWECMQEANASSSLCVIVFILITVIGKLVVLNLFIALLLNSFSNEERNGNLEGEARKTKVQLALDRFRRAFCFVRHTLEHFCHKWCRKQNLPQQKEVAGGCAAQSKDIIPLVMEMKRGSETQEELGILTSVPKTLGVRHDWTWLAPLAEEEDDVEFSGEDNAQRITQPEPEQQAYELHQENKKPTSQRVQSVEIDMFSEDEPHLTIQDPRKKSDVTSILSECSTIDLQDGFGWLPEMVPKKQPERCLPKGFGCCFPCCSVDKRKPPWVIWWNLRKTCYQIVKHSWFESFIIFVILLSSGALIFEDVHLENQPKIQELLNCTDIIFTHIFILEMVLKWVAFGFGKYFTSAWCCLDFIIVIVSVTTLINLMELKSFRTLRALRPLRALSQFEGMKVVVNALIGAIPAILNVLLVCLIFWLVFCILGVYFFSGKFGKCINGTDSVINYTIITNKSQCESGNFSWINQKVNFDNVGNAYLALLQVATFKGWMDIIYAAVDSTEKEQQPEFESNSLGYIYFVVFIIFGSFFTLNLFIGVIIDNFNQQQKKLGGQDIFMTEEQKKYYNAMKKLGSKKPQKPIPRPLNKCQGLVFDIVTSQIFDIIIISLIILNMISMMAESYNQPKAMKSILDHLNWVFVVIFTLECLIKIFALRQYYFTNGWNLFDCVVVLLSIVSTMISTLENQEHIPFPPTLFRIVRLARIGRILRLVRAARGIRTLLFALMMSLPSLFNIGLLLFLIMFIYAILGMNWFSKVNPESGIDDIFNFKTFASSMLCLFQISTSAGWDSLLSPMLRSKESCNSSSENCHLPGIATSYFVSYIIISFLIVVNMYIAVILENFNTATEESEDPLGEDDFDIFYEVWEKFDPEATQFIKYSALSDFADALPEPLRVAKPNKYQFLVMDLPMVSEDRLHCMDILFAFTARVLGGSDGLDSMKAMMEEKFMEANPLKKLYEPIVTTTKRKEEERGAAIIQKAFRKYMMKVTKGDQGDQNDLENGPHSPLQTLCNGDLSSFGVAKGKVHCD

On to `NCC1(CC(=O)O)CCCCC1` [Gabapentin], for which the “share of patients in which the drug works” value in series [1] is on record as 60%.

With `NC1=N[C@H](O)[C@H]2[C@H]3O[C@]4(O)O[C@@H]([C@@H](O)[C@@]2(N1)[C@@H]4O)[C@]3(O)CO` [TTX, tetrodotoxin], the IC50 (usually the point on the concentration scale where inhibition reaches its midpoint) in series [2] was 15 nM; in series [4], 6 nM; in series [5] (read-out: TTX IC50), above 50000 nM; in series [6] (read-out: TTX IC50), 1000 nM; in series [7], 10 nM; in series [8], 10 nM. The “block by TTX” value in series [3], in series [5] and in series [6] was “resistant to block” in each case.
